According to paper PMC6680637, “In Silico Repositioning of Cannabigerol as a Novel Inhibitor of the Enoyl Acyl Carrier Protein (ACP) Reductase (InhA)” (Molecules, 2019):

Target: T1, Enoyl acyl carrier protein (ACP) reductase (InhA) (Mycobacterium tuberculosis, UniProt P9WGR1)
T1 construct: wild type InhA
Experiment: enzyme kinetic assay, NADH oxidation at […] nm with trans-2-dodecenoyl-CoA substrate
Type: biochemical

T1 sequence (P9WGR1 whole entry, looked up): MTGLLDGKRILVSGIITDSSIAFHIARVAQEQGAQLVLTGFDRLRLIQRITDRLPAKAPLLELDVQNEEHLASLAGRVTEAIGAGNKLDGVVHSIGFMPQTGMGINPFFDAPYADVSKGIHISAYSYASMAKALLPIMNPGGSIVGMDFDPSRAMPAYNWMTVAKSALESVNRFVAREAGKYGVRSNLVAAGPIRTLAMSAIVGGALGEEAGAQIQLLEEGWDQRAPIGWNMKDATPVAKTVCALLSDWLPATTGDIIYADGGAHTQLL

CCCCCc1cc(O)c(C/C=C(\C)CCC=C(C)C)c(O)c1 [CBG, Cannabigerol] was tested, and the IC50 was 5.2 ± 0.1 µM.
